Data as given in ChEMBL document CHEMBL3217469, “Redesigning the designer drug ecstasy: non-psychoactive MDMA analogues exhibiting Burkitt's lymphoma cytotoxicity” (Medchemcomm, 2010).

Experiments:
[1] = Cytotoxicity against human L3055 cells assessed as reduction in [3H]thymidine incorporation after 24 hrs by propidium iodide staining-based assay; assay type: functional, cell-based
SH-SY5Y = assay: Neurotoxicity against human SH-SY5Y cells at 1 to 600 uM after 24 hrs by Alamar Blue assay; assay type: toxicity, cell-based
[2] = Ratio of MDMA IC50 to compound IC50 for human L3055 cells; assay type: functional
Rattus norvegicus [3] = assay: Induction of psychotic activity in Wistar rat assessed as reduction in prepulse inhibition of acoustic startle reflex at 4.4 to 88 umol/kg; assay type: organism-based; conditions: in vivo
[4] = target: T1, 5-hydroxytryptamine receptor 1A (Rattus norvegicus, UniProt P19327); assay: Displacement of [3H]WAY100635 from 5-HT1A receptor in Sprague-Dawley rat cerebral cortex after 60 mins by scintillation counting analysis; assay type: tissue-based
T1 sequence (P19327 whole entry): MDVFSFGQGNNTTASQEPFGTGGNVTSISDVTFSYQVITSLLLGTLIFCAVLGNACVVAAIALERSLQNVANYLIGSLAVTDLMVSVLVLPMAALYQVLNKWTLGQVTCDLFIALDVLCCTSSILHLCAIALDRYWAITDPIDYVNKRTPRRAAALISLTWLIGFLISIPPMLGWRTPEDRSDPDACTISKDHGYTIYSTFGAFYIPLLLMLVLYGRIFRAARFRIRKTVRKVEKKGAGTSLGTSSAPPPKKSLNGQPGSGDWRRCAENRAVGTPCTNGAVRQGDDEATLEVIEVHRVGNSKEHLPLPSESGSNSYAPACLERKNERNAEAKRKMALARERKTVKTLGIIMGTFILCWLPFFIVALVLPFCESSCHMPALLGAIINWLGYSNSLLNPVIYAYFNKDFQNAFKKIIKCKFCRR

Serotonin 1B/1D receptor = Serotonin 1B/1D receptor (Rattus norvegicus, UniProt P28564+P28565); assay: Displacement of [3H]GR125743 from 5-HT1B/1D receptor in Sprague-Dawley rat whole brain after 60 mins by scintillation counting analysis
[5] = target: T2, 5-hydroxytryptamine receptor 2C (Rattus norvegicus, UniProt P08909); assay: Displacement of [3H]mesulergine from 5-HT2C receptor in Sprague-Dawley rat whole brain after 60 mins by scintillation counting analysis
T2 sequence (P08909 whole entry): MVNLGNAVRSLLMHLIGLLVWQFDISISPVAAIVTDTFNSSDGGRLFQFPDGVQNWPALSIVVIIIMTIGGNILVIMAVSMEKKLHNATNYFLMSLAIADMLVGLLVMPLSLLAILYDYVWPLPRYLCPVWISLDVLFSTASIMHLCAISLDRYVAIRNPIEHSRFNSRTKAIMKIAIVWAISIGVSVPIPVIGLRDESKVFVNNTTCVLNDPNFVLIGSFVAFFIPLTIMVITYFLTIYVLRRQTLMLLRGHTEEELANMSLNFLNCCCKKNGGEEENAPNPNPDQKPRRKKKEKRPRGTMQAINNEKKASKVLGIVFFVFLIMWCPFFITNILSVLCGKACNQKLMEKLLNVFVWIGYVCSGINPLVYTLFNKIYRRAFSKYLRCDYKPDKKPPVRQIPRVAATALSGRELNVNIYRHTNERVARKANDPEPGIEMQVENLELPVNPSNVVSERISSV

[6] = target: 5-hydroxytryptamine receptor 2A (Rattus norvegicus, UniProt P14842); assay: Displacement of [3H]-ketanserin from 5-HT2A receptor in Sprague-Dawley rat cerebral cortex after 45 mins by scintillation counting analysis; assay type: tissue-based
Sequence of 5-hydroxytryptamine receptor 2A (P14842 whole entry): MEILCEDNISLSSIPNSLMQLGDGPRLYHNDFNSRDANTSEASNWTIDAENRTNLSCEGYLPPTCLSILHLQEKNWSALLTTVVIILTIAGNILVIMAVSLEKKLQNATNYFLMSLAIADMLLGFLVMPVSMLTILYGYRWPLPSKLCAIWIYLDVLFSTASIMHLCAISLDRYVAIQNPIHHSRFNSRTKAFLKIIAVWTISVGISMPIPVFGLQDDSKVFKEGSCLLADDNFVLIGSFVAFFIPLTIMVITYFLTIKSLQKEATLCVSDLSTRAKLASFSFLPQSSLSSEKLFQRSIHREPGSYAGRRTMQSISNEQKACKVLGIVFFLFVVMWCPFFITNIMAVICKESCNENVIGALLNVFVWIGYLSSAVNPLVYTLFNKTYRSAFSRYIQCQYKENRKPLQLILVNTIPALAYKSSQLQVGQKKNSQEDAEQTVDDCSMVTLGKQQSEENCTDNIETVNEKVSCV

Transporter = Transporter (Rattus norvegicus, UniProt Q63380); assay: Displacement of [3H]nisoxetine from NET in Sprague-Dawley rat cerebellum after 60 mins by scintillation counting analysis
Sequence of Transporter (Q63380 whole entry): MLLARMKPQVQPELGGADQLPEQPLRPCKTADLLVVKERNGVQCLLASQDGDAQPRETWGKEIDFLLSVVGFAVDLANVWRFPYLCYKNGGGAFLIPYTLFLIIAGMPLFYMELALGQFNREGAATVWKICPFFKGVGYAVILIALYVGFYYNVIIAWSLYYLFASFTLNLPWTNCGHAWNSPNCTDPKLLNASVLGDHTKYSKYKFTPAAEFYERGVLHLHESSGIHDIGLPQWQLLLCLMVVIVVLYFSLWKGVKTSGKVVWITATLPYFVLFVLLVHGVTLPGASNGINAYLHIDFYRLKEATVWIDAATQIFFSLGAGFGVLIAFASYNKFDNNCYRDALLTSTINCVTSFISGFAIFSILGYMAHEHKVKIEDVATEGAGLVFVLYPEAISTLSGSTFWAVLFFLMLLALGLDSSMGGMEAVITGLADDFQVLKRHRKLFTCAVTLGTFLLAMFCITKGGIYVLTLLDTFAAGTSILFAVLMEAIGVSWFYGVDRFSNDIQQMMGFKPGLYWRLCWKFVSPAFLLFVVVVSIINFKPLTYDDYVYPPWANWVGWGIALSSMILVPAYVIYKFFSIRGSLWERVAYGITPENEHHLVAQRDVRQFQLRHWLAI

[7] = target: Sodium-dependent serotonin transporter (Rattus norvegicus, UniProt P31652); assay: Displacement of [3H]citalopram from SERT in Sprague-Dawley rat whole brain after 60 mins by scintillation counting analysis
Sequence of Sodium-dependent serotonin transporter (P31652 whole entry): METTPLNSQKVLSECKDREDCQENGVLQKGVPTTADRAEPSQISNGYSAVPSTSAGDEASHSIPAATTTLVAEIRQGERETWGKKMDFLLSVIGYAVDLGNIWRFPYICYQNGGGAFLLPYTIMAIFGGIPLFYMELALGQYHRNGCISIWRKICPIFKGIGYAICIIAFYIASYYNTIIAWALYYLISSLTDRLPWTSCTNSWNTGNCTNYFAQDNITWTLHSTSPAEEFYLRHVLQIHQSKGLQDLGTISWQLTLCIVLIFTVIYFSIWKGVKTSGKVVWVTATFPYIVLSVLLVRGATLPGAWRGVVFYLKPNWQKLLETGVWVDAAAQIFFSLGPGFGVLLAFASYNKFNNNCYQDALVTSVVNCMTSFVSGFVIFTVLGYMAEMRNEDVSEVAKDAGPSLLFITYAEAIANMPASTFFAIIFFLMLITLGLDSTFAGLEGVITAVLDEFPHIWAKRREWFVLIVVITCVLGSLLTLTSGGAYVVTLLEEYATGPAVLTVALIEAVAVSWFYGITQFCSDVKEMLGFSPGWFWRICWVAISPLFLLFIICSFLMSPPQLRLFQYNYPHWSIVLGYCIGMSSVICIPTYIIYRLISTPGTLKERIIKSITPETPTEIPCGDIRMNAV

[8] = target: Sodium-dependent dopamine transporter (Rattus norvegicus, UniProt P23977); assay: Displacement of [3H]GBR12935 from DAT in Sprague-Dawley rat striatum after 45 mins by scintillation counting analysis
Sequence of Sodium-dependent dopamine transporter (P23977 whole entry): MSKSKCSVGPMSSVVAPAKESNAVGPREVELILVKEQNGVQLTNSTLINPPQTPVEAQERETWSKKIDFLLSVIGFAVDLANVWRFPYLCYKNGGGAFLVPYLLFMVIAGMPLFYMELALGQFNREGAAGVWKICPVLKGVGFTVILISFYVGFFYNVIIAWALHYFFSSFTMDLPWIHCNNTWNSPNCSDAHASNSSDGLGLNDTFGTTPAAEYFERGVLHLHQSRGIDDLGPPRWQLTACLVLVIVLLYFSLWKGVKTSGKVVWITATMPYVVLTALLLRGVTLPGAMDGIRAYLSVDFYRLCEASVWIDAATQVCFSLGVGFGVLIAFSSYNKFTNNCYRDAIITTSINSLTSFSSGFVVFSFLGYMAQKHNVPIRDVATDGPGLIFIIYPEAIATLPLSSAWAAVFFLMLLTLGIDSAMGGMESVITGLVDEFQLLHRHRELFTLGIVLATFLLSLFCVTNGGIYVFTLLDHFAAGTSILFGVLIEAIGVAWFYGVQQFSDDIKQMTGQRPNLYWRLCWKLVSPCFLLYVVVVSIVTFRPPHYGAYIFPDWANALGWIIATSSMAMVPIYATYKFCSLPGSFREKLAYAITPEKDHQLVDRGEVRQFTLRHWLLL

Rattus norvegicus [9] = species: Rattus norvegicus; assay: Induction of psychotic activity in Wistar rat assessed as reduction in prepulse inhibition of acoustic startle reflex; assay type: organism-based; conditions: in vivo

In the case of `CNC(Cc1ccc2c(c1)OCO2)Cc1ccc2c(c1)OCO2`, the IC50 [1] is reported as 36.7 µM.
In the case of `CNC(Cc1ccc2c(c1)OCO2)c1ccccc1C` (racemic), the IC50 [1] is reported as 65 µM.
`CNC(Cc1ccc2c(c1)OCO2)c1cccc(C)c1` (racemic) gave an IC50 [1] of 51 µM.
In the case of `CNC(Cc1ccc2c(c1)OCO2)c1ccc(C)cc1` (racemic), the IC50 [1] is reported as 42 µM.
Work on `CNC(Cc1ccc2c(c1)OCO2)c1ccccc1OC` (racemic) yielded an IC50 [1] of 92 µM.
`CNC(Cc1ccc2c(c1)OCO2)c1cccc(OC)c1` (racemic) gave an IC50 [1] of 80 µM.
`CNC(Cc1ccc2c(c1)OCO2)c1ccc(OC)cc1` (racemic) showed an IC50 [1] of 69 µM.
Work on `CNC(Cc1ccc2c(c1)OCO2)c1ccc(F)cc1` (racemic) yielded an IC50 [1] of 63 µM.
With `CNC(Cc1ccc2c(c1)OCO2)C1CCCCC1` (racemic) the IC50 [1] was 81 µM.
`CNC(Cc1ccccc1)Cc1ccc2c(c1)OCO2` (racemic) showed an IC50 [1] of 69 µM.
For `CNC(Cc1ccc2c(c1)OCO2)c1cccc2ccccc12.Cl` (racemic), the Activity (SH-SY5Y) was “Non-toxic”, the “Ratio IC50” value [2] was 100 and the IC50 [1] was 12.6 µM.
With `CNC(Cc1ccc2c(c1)OCO2)c1ccc2ccccc2c1.Cl` (racemic) the Activity (SH-SY5Y) was “Non-toxic”, the “Ratio IC50” value [2] was 100 and the IC50 [1] was 6.6 µM.
With `CNC(Cc1ccc2c(c1)OCO2)c1ccc(-c2ccccc2)cc1` (racemic) the IC50 [1] was 6 µM.
Compound `CCC(Cc1ccc2c(c1)OCO2)NC` (racemic) has an IC50 [1] of 707 µM.
Compound `CCCC(Cc1ccc2c(c1)OCO2)NC` (racemic) has an IC50 [1] of 379 µM.
`CNC(Cc1ccc2c(c1)OCO2)C1CC1` (racemic) gave an IC50 [1] of 801 µM.
Compound `CNC(Cc1ccc2c(c1)OCO2)C(C)C` (racemic) has an IC50 [1] of 651 µM.
With `CNC(Cc1ccc2c(c1)OCO2)C(C)(C)C` (racemic) the IC50 [1] was 447 µM.
In the case of `CNC(Cc1ccc2c(c1)OCO2)c1ccccc1.Cl` (racemic), the Activity (Rattus norvegicus [3]) is reported as “Non-toxic”, the Ki [4] is reported as > 10 µM and the Ki (Serotonin 1B/1D receptor) is reported as > 10 µM. The Ki [5] was > 10 µM, the Ki [6] was 1.23 µM and the Ki (Transporter) was 0.7 µM. For the same compound, the Ki [7] was 1.32 µM, the Ki [8] was > 10 µM and the Activity (SH-SY5Y) was “Toxic”. The “Ratio IC50” value [2] was 7 and the IC50 [1] was 76 µM.
For `CNC(C)Cc1ccc2c(c1)OCO2.Cl` (centres undefined) [MIDOMAFETAMINE HYDROCHLORIDE], the Ki [4] was > 10 µM, the Ki (Serotonin 1B/1D receptor) was > 10 µM and the Ki [5] was > 10 µM. The Ki [6] was > 10 µM, the Ki (Transporter) was > 10 µM and the Ki [7] was 0.21 µM. The Ki [8] was > 10 µM, the Activity (SH-SY5Y) was “Toxic” and the IC50 [1] was 507 µM. The Activity (Rattus norvegicus [9]) was “Dose-dependent effect”.
For `COc1ccc(CC(C)N)cc1` (centres undefined) [PARA-METHOXYAMPHETAMINE], the Activity (Rattus norvegicus [9]) was “Dose-dependent effect”.
